Results: publication PMC5564600 (Oncotarget, 2017)
Where two headings read alike, the source gives them in different places.

Assays:
Assay in all cases: biochemical
Type in all cases: binding
panel of 442 kinases [1] = target: T1, panel of 442 kinases (Homo sapiens, UniProt Q9HBH9); settings: kinase MKNK2; for remaining activity at 1 µM: read-out: % of control at 1 µM
T1 construct: purchased Ambit Biosciences (scanMAXX KINOMEscan)

panel of 442 kinases [2] = target: T2, panel of 442 kinases (Homo sapiens, UniProt P48730); settings: CSNK1D; for remaining activity at 1 µM: read-out: % of control at 1 µM
T2 construct: purchased Ambit Biosciences (scanMAXX KINOMEscan)
T2 sequence (P48730 whole entry): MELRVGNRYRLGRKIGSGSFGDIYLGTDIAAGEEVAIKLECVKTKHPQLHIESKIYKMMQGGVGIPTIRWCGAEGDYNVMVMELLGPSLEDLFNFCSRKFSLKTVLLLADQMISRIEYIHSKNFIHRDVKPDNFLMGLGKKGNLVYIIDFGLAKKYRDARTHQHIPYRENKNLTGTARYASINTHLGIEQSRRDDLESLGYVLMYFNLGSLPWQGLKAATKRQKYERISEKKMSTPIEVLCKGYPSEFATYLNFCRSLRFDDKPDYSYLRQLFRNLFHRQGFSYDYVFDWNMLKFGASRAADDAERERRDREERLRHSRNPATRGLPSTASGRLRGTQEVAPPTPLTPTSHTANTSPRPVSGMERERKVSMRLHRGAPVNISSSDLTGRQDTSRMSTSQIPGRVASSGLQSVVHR

panel of 442 kinases [3] = target: T3, panel of 442 kinases (Homo sapiens, UniProt P57059); settings: kinase SIK; for remaining activity at 1 µM: read-out: SIK (% of control at 1 µM)
T3 construct: purchased Ambit Biosciences (scanMAXX KINOMEscan)
T3 sequence (P57059 whole entry): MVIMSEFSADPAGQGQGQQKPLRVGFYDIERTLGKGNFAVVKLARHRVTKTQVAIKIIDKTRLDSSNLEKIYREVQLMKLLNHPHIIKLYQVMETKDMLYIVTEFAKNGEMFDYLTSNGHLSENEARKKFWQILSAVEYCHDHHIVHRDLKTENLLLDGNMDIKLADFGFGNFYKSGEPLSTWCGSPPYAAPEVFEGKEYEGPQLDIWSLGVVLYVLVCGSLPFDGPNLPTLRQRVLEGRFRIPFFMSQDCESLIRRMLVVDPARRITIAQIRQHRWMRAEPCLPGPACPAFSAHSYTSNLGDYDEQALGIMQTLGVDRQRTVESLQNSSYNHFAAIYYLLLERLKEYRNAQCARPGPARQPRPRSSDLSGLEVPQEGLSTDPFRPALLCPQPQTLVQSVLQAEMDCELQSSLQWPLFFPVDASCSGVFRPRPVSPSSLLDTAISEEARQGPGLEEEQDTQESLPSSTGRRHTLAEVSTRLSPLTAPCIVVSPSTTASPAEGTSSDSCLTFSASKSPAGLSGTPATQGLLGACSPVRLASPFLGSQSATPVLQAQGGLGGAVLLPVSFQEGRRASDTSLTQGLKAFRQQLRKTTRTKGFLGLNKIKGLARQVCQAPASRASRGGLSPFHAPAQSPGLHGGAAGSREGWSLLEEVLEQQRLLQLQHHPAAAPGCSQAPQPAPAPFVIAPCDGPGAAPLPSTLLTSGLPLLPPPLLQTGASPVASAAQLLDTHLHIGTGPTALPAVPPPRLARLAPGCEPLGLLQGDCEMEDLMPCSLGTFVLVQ

panel of 442 kinases [4] = target: T4, panel of 442 kinases (Homo sapiens, UniProt P37023); settings: ACVRL1; for remaining activity at 1 µM: read-out: % of control at 1 µM
T4 construct: purchased Ambit Biosciences (scanMAXX KINOMEscan)
T4 sequence (P37023 22-503): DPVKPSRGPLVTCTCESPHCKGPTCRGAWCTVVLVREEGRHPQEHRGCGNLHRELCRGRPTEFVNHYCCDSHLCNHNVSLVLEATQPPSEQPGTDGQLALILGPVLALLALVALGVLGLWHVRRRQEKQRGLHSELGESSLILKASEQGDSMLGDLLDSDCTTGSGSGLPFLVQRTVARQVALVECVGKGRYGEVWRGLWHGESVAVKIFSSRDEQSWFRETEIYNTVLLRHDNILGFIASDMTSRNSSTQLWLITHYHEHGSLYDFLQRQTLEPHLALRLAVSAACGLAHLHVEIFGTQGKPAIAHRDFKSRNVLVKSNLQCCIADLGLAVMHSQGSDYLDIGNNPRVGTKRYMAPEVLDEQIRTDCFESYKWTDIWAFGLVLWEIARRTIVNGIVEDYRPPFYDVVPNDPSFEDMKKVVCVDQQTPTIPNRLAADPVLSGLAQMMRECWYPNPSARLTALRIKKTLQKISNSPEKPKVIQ

panel of 442 kinases [5] = target: T5, panel of 442 kinases (Homo sapiens, UniProt P42685); settings: kinase FRK; for remaining activity at 1 µM: read-out: % of control at 1 µM
T5 construct: purchased Ambit Biosciences (scanMAXX KINOMEscan)
T5 sequence (P42685 whole entry): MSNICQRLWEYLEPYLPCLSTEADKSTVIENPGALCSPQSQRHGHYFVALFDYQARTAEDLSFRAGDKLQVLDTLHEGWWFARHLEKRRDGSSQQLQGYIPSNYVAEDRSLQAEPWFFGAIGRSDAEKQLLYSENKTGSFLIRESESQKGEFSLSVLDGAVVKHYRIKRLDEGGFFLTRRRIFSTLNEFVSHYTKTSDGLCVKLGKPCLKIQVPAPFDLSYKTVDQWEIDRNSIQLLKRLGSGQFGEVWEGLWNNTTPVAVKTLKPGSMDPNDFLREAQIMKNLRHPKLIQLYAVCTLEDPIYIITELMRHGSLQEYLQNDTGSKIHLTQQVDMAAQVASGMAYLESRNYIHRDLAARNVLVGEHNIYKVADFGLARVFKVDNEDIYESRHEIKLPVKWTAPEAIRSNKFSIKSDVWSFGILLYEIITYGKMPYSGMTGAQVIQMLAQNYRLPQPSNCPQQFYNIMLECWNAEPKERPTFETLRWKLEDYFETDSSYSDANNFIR

panel of 442 kinases [6] = target: T6, panel of 442 kinases (Homo sapiens, UniProt Q99759); settings: kinase MAP3K3; for remaining activity at 1 µM: read-out: % of control at 1 µM
T6 construct: purchased Ambit Biosciences (scanMAXX KINOMEscan)
T6 sequence (Q99759 1-626): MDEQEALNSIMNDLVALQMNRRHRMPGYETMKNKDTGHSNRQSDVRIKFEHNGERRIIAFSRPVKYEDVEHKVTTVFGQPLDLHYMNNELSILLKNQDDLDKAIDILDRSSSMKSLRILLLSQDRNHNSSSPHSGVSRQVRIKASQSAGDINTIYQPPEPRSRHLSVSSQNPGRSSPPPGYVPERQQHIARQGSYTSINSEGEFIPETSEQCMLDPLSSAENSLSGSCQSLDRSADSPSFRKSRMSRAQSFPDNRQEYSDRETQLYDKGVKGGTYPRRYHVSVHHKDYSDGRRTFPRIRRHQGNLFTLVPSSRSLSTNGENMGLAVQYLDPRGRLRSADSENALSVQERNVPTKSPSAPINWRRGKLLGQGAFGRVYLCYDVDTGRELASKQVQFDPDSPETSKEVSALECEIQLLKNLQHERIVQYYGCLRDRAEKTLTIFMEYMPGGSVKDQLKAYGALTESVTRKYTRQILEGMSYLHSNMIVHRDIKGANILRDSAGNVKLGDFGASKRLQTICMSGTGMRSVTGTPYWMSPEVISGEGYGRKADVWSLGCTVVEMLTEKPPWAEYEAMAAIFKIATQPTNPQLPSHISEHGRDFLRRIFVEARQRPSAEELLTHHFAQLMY

panel of 442 kinases [7] = target: T7, panel of 442 kinases (Homo sapiens, UniProt P45985); settings: kinase MEK4; for remaining activity at 1 µM: read-out: % of control at 1 µM
T7 construct: purchased Ambit Biosciences (scanMAXX KINOMEscan)
T7 sequence (P45985 1-399): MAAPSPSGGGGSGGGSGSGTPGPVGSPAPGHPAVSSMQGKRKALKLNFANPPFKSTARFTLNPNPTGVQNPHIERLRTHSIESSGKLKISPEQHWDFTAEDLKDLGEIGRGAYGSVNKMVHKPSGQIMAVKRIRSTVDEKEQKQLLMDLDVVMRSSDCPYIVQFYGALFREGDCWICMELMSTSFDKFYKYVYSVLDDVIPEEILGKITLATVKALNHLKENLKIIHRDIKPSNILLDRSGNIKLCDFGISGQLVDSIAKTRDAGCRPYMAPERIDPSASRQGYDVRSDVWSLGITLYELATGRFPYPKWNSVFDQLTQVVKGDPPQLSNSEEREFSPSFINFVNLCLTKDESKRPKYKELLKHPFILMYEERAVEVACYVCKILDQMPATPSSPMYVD

panel of 442 kinases [8] = target: T8, panel of 442 kinases (Homo sapiens, UniProt Q9UK32)
T8 construct: purchased Ambit Biosciences (scanMAXX KINOMEscan)
T8 sequence (Q9UK32 whole entry): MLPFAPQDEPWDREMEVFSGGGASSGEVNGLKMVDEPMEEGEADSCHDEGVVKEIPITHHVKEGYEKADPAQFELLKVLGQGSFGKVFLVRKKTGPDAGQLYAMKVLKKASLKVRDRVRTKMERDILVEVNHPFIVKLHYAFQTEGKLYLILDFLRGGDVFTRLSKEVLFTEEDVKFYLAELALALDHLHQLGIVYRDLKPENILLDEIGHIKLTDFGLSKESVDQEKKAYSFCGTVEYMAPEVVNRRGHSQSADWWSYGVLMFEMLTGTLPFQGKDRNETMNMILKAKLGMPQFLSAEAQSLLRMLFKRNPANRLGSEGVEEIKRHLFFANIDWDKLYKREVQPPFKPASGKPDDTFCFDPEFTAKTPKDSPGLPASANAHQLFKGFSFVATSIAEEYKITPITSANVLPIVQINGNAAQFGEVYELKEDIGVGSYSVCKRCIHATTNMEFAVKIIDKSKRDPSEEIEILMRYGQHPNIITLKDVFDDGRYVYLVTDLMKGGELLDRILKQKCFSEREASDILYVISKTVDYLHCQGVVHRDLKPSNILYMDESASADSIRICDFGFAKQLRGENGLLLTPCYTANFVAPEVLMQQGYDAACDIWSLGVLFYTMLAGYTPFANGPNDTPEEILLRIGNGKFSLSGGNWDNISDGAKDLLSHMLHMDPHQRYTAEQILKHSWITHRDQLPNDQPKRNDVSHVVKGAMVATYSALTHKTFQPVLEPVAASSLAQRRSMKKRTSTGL

panel of 442 kinases [9] = target: T9, panel of 442 kinases (Homo sapiens, UniProt Q96D53); settings: ADCK4; for remaining activity at 1 µM: read-out: % of control at 1 µM
T9 construct: purchased Ambit Biosciences (scanMAXX KINOMEscan)
T9 sequence (Q96D53 1-544): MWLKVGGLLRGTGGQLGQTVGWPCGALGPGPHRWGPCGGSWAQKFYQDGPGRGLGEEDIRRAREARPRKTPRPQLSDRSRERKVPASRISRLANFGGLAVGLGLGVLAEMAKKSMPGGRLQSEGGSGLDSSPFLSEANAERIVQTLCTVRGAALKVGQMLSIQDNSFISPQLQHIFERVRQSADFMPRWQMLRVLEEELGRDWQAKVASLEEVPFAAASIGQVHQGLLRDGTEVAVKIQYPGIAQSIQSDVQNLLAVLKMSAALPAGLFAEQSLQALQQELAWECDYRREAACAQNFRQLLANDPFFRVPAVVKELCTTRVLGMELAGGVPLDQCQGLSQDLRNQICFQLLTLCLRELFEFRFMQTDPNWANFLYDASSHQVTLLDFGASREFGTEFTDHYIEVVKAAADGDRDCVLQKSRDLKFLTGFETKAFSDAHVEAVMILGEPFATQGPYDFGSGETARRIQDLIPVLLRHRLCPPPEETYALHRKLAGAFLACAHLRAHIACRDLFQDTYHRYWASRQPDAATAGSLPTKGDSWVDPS

panel of 442 kinases [10] = target: T10, panel of 442 kinases (Homo sapiens, UniProt Q04912); settings: kinase MST1R; for remaining activity at 1 µM: read-out: % of control at 1 µM
T10 construct: purchased Ambit Biosciences (scanMAXX KINOMEscan)
T10 sequence (Q04912 25-1400): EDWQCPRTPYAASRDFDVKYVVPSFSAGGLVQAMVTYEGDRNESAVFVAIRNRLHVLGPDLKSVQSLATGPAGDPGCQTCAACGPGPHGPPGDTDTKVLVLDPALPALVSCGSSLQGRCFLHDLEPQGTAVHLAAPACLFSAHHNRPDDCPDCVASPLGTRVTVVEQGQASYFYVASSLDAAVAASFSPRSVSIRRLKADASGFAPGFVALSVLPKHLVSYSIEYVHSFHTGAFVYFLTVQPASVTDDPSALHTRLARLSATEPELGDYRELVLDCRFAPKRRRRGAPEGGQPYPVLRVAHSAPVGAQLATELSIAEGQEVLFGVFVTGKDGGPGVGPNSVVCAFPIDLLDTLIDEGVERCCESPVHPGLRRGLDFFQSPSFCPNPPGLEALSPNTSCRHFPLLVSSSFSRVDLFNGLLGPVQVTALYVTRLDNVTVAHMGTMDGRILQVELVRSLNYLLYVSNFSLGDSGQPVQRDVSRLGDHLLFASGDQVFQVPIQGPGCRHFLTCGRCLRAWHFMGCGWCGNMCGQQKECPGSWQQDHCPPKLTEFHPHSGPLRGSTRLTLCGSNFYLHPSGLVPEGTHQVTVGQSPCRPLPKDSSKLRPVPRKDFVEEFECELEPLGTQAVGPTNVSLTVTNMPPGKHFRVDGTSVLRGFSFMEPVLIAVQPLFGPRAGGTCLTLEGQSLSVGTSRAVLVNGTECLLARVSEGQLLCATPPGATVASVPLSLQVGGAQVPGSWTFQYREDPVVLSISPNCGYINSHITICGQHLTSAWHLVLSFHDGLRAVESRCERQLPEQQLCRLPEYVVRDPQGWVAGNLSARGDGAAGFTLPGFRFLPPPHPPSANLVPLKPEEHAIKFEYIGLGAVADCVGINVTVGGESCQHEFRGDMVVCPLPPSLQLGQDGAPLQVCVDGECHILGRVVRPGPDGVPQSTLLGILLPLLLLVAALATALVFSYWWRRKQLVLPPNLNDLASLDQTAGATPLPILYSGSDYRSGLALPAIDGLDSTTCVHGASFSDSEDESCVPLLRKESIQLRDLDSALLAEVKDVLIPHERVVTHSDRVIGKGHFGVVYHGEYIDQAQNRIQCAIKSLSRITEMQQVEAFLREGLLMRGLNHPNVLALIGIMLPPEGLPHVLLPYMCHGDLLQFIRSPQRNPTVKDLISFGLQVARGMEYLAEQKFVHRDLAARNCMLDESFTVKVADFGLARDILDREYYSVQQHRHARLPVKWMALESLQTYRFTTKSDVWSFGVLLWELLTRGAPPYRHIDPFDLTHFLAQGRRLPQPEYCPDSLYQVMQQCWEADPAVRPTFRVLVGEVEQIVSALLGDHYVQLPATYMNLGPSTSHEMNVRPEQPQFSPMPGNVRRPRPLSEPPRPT

[11] = 10 µM, read-out: % of control at 10 µM
[12] = kinase RSK4(Kin.Dom.1-N-terminal), read-out: RSK4(Kin.Dom.1-N-terminal) (% of control at 1 µM)
[13] = kinase RSK4(Kin.Dom.2-C-terminal), read-out: RSK4(Kin.Dom.2-C-terminal) (% of control at 1 µM)

T1 sequence (Q9HBH9 whole entry): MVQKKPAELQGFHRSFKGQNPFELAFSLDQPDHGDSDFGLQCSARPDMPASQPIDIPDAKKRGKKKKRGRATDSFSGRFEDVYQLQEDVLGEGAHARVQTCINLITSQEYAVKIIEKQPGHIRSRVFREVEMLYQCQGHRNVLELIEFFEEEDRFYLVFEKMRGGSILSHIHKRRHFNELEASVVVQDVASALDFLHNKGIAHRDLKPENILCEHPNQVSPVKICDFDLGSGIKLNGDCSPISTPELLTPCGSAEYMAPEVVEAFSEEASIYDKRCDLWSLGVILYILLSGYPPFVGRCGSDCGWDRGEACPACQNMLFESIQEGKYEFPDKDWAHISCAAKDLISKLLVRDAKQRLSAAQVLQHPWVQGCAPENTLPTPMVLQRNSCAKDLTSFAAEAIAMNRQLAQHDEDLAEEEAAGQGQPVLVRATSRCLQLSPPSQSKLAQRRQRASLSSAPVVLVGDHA

Compound	remaining activity at 1 µM (panel of 442 kinases [1]) [%]	remaining activity at 1 µM (panel of 442 kinases [2]) [%]	remaining activity at 1 µM (panel of 442 kinases [3]) [%]	remaining activity at 1 µM (panel of 442 kinases [4]) [%]	remaining activity at 1 µM (panel of 442 kinases [5]) [%]	remaining activity at 1 µM (panel of 442 kinases [6]) [%]	remaining activity at 1 µM (panel of 442 kinases [7]) [%]	remaining activity at 1 µM (panel of 442 kinases [8]; [12]) [%]	remaining activity at 1 µM (panel of 442 kinases [8]; [13]) [%]	remaining activity at 1 µM (panel of 442 kinases [9]) [%]	remaining activity at 1 µM (panel of 442 kinases [10]) [%]	other results
Nc1cc(C(F)(F)F)c(-c2cc(N3CCOCC3)nc(N3CCOCC3)n2)cn1 [Buparlisib]	90	92	100	84	100	98	100	99	100	100	74	remaining activity at 10 µM (panel of 442 kinases [1]; [11]): 80%; remaining activity at 10 µM (panel of 442 kinases [2]; [11]): 75%; remaining activity at 10 µM (panel of 442 kinases [3]; 10 µM, read-out: SIK (% of control at 10 µM)): 100%; remaining activity at 10 µM (panel of 442 kinases [4]; [11]): 100%; remaining activity at 10 µM (panel of 442 kinases [5]; [11]): 100%; remaining activity at 10 µM (panel of 442 kinases [6]; [11]): 100%; remaining activity at 10 µM (panel of 442 kinases [7]; [11]): 100%; remaining activity at 10 µM (panel of 442 kinases [8]; kinase RSK4(Kin.Dom.1-N-terminal), read-out: RSK4(Kin.Dom.1-N-terminal) (% of control at 10 µM)): 100%; remaining activity at 10 µM (panel of 442 kinases [8]; kinase RSK4(Kin.Dom.2-C-terminal), read-out: RSK4(Kin.Dom.2-C-terminal) (% of control at 10 µM)): 100%; remaining activity at 10 µM (panel of 442 kinases [9]; [11]): 100%; remaining activity at 10 µM (panel of 442 kinases [10]; [11]): 100%
Cn1c(=O)n(-c2ccc(C(C)(C)C#N)cc2)c2c3cc(-c4cnc5ccccc5c4)ccc3ncc21 [Dactolisib, 2-methyl-2-[4-(3-methyl-2-oxo-8-quinolin-3-yl-2,3-dihydroimidazo[4,5-c]quinolin-1-yl)-phenyl] propionitrile]	100	76	100	94	85	81	83	71	82	–	60	–
COc1ncc(-c2ccc3nccc(-c4ccnnc4)c3c2)cc1NS(=O)(=O)c1ccc(F)cc1F [Omipalisib]	98	100	100	100	98	100	48	88	79	75	95	–
FC(F)c1nc2ccccc2n1-c1nc(N2CCOCC2)nc(N2CCOCC2)n1 [ZSTK474, 2-(difluoromethyl)-1-[4,6-di(4-morpholinyl)-1,3,5-triazin-2-yl]-1H-benzimidazole]	100	67	100	100	83	74	63	81	91	74	92	–
